Results reported in US12208093B2 (THE JOHNS HOPKINS UNIVERSITY, priority 2016, dated 2025).
Counter-ions that a name gives are not always drawn.

Biological target: T1, RPS14 and MDM2 (Homo sapiens, UniProt P62263+Q00987)
T1 construct: endogenous in cells; host or cells: Human foreskin fibroblasts (HFFs, ATCC CRL-2088), infected with HCMV Towne
Experiment: Co-immunoprecipitation of RPS14 and MDM2; RPS14 expression and ubiquitination
Assay type: cell-based
Description: SDS-polyacrylamide gel electrophoresis and immunoblot analysis. Cell lysates were quantified for protein content using bicinchoninic acid (BCA) protein assay kit (Pierce Chemical, Rockford, IL). Equivalent amount of proteins were used for Western blot analysis as described previously. Protein bands were visualized by chemiluminescence using Western Blotting Luminol Reagent (Santa Cruz Biotechnology, Santa Cruz, CA). The following antibodies were used for detection of HCMV proteins: mouse anti-IE1 and IE2, (MAb810); mouse anti-UL44 (Santa Cruz biotechnology Santa Cruz, CA); mouse monoclonal anti-pp65 (Vector laboratories, Burlingame, CA); mouse monoclonal anti-β-actin antibody (Millipore, Billerica, MA); rabbit polyclonal anti-RPS14 and mouse monoclonal anti-MDM2 (AbCam, Cambridge, UK), mouse monoclonal anti-p53 (Santa Cruz, CA); horseradish peroxidase (HRP)-conjugated goat anti-rabbit IgG (Cell Signaling); and HRP-conjugated sheep anti-mouse IgG, (GE Healthcare, Waukesha, WI). For detection of co-immunoprecipitated proteins, protein A-HRP conjugate (Cell Signaling Technologies, Beverly, MA) was used as secondary antibody to eliminate the interfering IgG bands.
Co-immunoprecipitation (IP) and immunoblotting. Non-infected, infected or emetine-treated HFFs were treated with MG132 (10 μM) for 12 h. […] 1 mg of lysate was precleared with bead slurry for 30 min. The precleared lysates were incubated with anti-MDM2 (2 μg) antibody overnight. The antibody complexes were isolated using protein A/G beads (Santa Cruz), washed three times with 50% IP buffer. The immunoprecipitate—protein A/G beads were boiled in SDS sample buffer, and the supernatant was analyzed on SDS-PAGE gels after immunoblotting as described previously. […] Reverse IPs were performed by pulling down the precleared lysates with either anti-p53 antibody or anti-RPS14 antibody and detected with MDM2. […] In other experiments, transfected or treated HEK293 cell lysates were pulled-down with anti-IE2 antibody and detected with anti-MDM2 antibody and vice-versa for reverse IP.

With `CC[C@H]1CN2CCc3cc(OC)c(OC)cc3[C@@H]2C[C@@H]1C[C@H]1NCCc2cc(OC)c(OC)cc21` [emetine, emetine dihydrochloride hydrate] as the compound, how does the “interaction between RPS14 and MDM2” value (24 hpi, contact-inhibited infected cells, not cycling cells, MG132 present) read?
Its value is “strongly induced”.

What about the “HCMV-induced RPS14 expression” value (72 hpi, contact-inhibited infected cells, emetine 75 nM) of the same compound?
The value was “reduced”.

What about the “ubiquitinated RPS14” value (72 hpi, only in contact-inhibited cells, MG132) of the same compound?
Its value is “increased”.
